{"source": "patent US3941842A", "about": "“P,P'-Disubstituted α-trichloromethylbenzylanilines” (priority 1972, dated 1976)", "key": {"[1]": {"assay": "Model ecosystem: distribution, ecological magnification and Biodegradability Index", "conditions": "for ecological magnification (E.M.): ratio of parent material in fish to concentration in water", "text": "After the amounts of the various metabolites have been calculated and a determination is made as to which of the metabolites are to be designated as \"polar\" and which are to be designated as \"non-polar\", a Biodegradability Index (amount of polar metabolites/amount of nonpolar metabolites) may be calculated. Remembering that nonpolar compounds, such as DDT are readily soluble in the fatty tissues, but are not readily soluble in water based solutions, and that the cell fluid is essentially a water based solution, the lower the Biodegradability Index, the lower the amount of biodegradability of the compound. The higher the amount of polarity, the greater the likelihood that the polar compound will dissolve in water, a very polar compound, and be eliminated from the cell.\nThe environmental fate of any new pesticide is a factor of paramount importance in determining how and where it might be used. The behavior of ^3 H-α-trichloromethyl-p-ethoxybenzyl-p-ethoxyaniline has been studied by the model ecosystem technique following application of 5.0 mg. of labeled compound to Sorghum plants. A summary of\nmetabolites from the organisms in the model ecosystem after 33 days were\nidentified by cochromatography with standards of known constitution, by\nappropriate chromogenic reagents, and by high-resolution mass\nspectrometry. The data of Table IV indicate the O-dealkylation of\nFood Chem. 1 (1972). Ethoxychlor was found in the snail to 58.6 ppm and in the fish to 0.92 ppm, along with its ethylene and the mono- and bis-phenols formed by O-dealkylation. The ecological magnification (E.M.) of ethoxychlor, defined as the ratio of the parent material in the fish to the concentration in the water, was 1500-fold as compared with an E.M. of only 0.7-fold for the ethoxyaniline.\nComparing the Biodegradability Indices (B.I.=total recovered polar metabolites/total recovered nonpolar metabolites) the values are 0.44 for ethoxychlor and 2.0 for ethoxyaniline."}, "[2]": {"conditions": "background; cited from earlier work"}, "[3]": {"conditions": "background; cited from earlier work", "remark": "listed apart in the source"}, "insects": {"tested_on": "insects", "conditions": "background; cited from earlier work"}, "[4]": {"tested_on": "multifunction oxidase (MFO) enzymes", "conditions": "background; cited from earlier work"}, "Musca domestica Snaidm": {"tested_on": "Musca domestica Snaidm", "assay": "Topical LD50 to adult female SNAIDM houseflies", "method": "(§1) The compounds of the present invention were tested for insecticidal activity by standard methods, and compared with the insecticidal activities of DDT and symmetrical analogs of DDT, such methoxychlor. Toxicological methods for the determination of the topical LD50 values to adult female SNAIDM and RSP houseflies, Musca domestica L. and to Phormia regina, and LC50 values to Culex pipiens quinquefasciatus Say, and Anopheles albimanus Weid mosquitoes were described by Metcalf el al., 44 Bull. World Health Org. 363 (1971). The methods for evaluation of metabolism by mouse liver homogenate and by female RSP housefly and salt-marsh caterpillar larvae Estigmene acrea Drury, were described by Kapoor et al., 18 J. Agr. Food Chem. 1145 (1970). The techniques for model eocsystem evluation were described by Metcalf et al., 5 J. Environ. Sci. Tech. 709 (1971).\n(§2) Since piperonyl butoxide serves to block the action of MFO, the synergized LD50 values express the intrinsic toxicity of the compounds. With the detoxifying action of MFO enzymes blocked, the intrinsic toxicity of the compounds can thus be measured."}, "Musca domestica Rsp": {"tested_on": "Musca domestica Rsp", "assay": "Topical LD50 to adult female RSP houseflies", "method": "as §1, §2"}, "Phormia regina": {"tested_on": "Phormia regina", "assay": "whole plant or invertebrate", "conditions": "topical", "method": "as §1, with “363 (1971).” left out, “Food Chem. 1145 (1970).” left out, “Tech.” for “Tech. 709 (1971).”\nas §2"}, "Culex fatigans larvae": {"tested_on": "Culex fatigans larvae", "assay": "LC50 to Culex fatigans larvae", "assay_type": "in vivo, Culex pipiens quinquefasciatus Say", "text": "(§3) World Health Org. 363 (1971). […] Food Chem. 1145 (1970). […] Sci. Tech. 709 (1971). The results are detailed in Table II. ##SPC1##"}, "[5]": {"tested_on": "Anopheles albimanus larvae", "assay": "LC50 to Anopheles albimanus larvae", "assay_type": "in vivo, Anopheles albimanus Weid", "text": "as §3"}, "Female housefly": {"tested_on": "Female housefly", "assay": "Metabolism of 3H-ethoxyaniline by female RSP housefly", "method": "as §1\n(§4) The biodegradability of an insecticide may be measured by administering measured doses of a tritium labeled test insecticide to a subject. Some time later the subject is sacrificed, liquefied, and a sample of the liquefied insect is placed on a thin layer chromotagraphy (tlc) plate. The plate is developed in a suitable solvent and Rf values of the various compounds contained in the sample are measured against known Rf values of previously synthesized theoretical metabolic breakdown products. The amount of each metabolite present may thus be measured by measuring the ^3 H at each separately resolved spot on the tlc plate. A permanent record may be made by exposing film to the plate to form a ratioautograph."}, "Salt-marsh caterpillar": {"tested_on": "Salt-marsh caterpillar", "assay": "Metabolism of 3H-ethoxyaniline by salt-marsh caterpillar larvae", "method": "as §1, §4"}, "[6]": {"assay": "Metabolism of 3H-labeled compound by mouse liver homogenate", "method": "as §1, §4"}, "[7]": {"conditions": "synergistic ratio: LD50 alone/LD50 synergized with piperonyl butoxide"}, "[8]": {"conditions": "female RSP housefly, topical 1.0 μg, 24 hr"}}, "note": "Entries after “also recorded” stand apart in the source; their conditions may differ.", "data": [{"smiles": "Clc1ccc(C(c2ccc(Cl)cc2)C(Cl)(Cl)Cl)cc1", "note": "[DDT, 1,1,1 trichloro-2,2-bis(p-chlorophenyl)ethane]", "values": [{"measurement": "ecological magnification (E.M.)", "setting": "[1]", "result": "84,000 fold"}, {"measurement": "Biodegradability Index (B.I.)", "setting": "[1]; total recovered polar/total recovered nonpolar metabolites", "result": 0.015}, {"measurement": "lipid solubility (in words)", "setting": "[2]", "result": "high lipid solubility"}, {"measurement": "water solubility (in words)", "setting": "[2]", "result": "very low water solubility"}, {"measurement": "accumulation in animal tissues (in words)", "setting": "[3]", "result": "accumulation in the fatty or lipid tissues of animals"}, {"measurement": "insecticidal activity (in words)", "setting": "insects", "result": "effective contact or residual insecticide"}, {"measurement": "biodegradability (in words)", "setting": "[4]", "result": "not biodegradable"}, {"measurement": "susceptibility to MFO enzymes (in words)", "setting": "[4]", "result": "do not function on DDT and its metabolic derivatives DDE and DDD"}]}, {"smiles": "CCOc1ccc(NC(c2ccc(OCC)cc2)C(Cl)(Cl)Cl)cc1", "note": "(stereo not drawn) [Compound III, α-trichloromethyl-p-ethoxybenzyl-p-ethoxyaniline]", "values": [{"measurement": "LD50", "setting": "Musca domestica Snaidm; Musca domestica, topical, read-out: Topical LD50, Musca domestica Snaidm, Alone", "result": 15.5, "unit": "mg/kg"}, {"measurement": "Topical LD50, Musca domestica Snaidm, with pb", "setting": "Musca domestica Snaidm; SNAIDM strain, synergized with piperonyl butoxide, topical", "result": 4.2, "unit": "μg per g"}, {"measurement": "SR, Musca domestica Snaidm", "setting": "Musca domestica Snaidm; [7]", "result": 3.7}, {"measurement": "LD50", "setting": "Musca domestica Rsp; Musca domestica, topical, read-out: Topical LD50, Musca domestica Rsp, Alone", "result": 20.5, "unit": "mg/kg"}, {"measurement": "Topical LD50, Musca domestica Rsp, with pb", "setting": "Musca domestica Rsp; RSP strain, synergized with piperonyl butoxide, topical", "result": 6.5, "unit": "μg per g"}, {"measurement": "SR, Musca domestica Rsp", "setting": "Musca domestica Rsp; [7]", "result": 3.2}, {"measurement": "LD50", "setting": "Phormia regina; Phormia regina, read-out: Topical LD50, Phormia regina, Alone", "result": 33.7, "unit": "mg/kg"}, {"measurement": "Topical LD50, Phormia regina, with pb", "setting": "Phormia regina; synergized with piperonyl butoxide", "result": 9.7, "unit": "μg per g"}, {"measurement": "LC50 Culex fatigans larvae", "setting": "Culex fatigans larvae", "result": 0.19, "unit": "ppm"}, {"measurement": "LC50 Anopheles albimanus larvae", "setting": "[5]", "result": 0.28, "unit": "ppm"}, {"measurement": "Female housefly, percent 3H in Excreta", "setting": "Female housefly; 24 hr after topical 1.0 μg 3H-ethoxyaniline (compound III), excreta", "result": 22.9, "unit": "%"}, {"measurement": "Female housefly, percent 3H in Homogenate", "setting": "Female housefly; 24 hr after topical 1.0 μg 3H-ethoxyaniline (compound III), homogenate", "result": 37.6, "unit": "%"}, {"measurement": "3H recovered as body homogenate", "setting": "Female housefly; [8]", "result": 65, "unit": "%"}, {"measurement": "3H recovered as body wash", "setting": "Female housefly; [8]", "result": 19.2, "unit": "%"}, {"measurement": "3H recovered as excreta", "setting": "Female housefly; [8]", "result": 10, "unit": "%"}, {"measurement": "recovery of the 3H", "setting": "Female housefly; female RSP housefly, topical 1.0 μg, 24 hr, total", "result": 94.2, "unit": "%"}, {"measurement": "metabolic pathway in insect and mammal (in words)", "setting": "Female housefly; insects (housefly, caterpillar) and mouse liver homogenate", "result": "metabolized in both the insect and the mammal by O-dealkylation to form both mono- and bis- phenols"}, {"measurement": "3H recovered in excreta", "setting": "Salt-marsh caterpillar; 4th instar larvae, 0.5 mg fed, 24 hr", "result": 75, "unit": "%"}, {"measurement": "Salt-marsh caterpillar, percent 3H in Excreta", "setting": "Salt-marsh caterpillar; 24 hr after feeding 0.5 mg 3H-ethoxyaniline (compound III), excreta", "result": 2.5, "unit": "%"}, {"measurement": "Salt-marsh caterpillar, percent 3H in Homogenate", "setting": "Salt-marsh caterpillar; 24 hr after feeding 0.5 mg 3H-ethoxyaniline (compound III), homogenate", "result": 9.0, "unit": "%"}, {"measurement": "Mouse liver, percent 3H in homogenate", "setting": "[6]; 0.01 μM 3H-labeled compound III, 1 hr incubation, NADPH and nicotinamide", "result": 30, "unit": "%"}, {"measurement": "metabolic pathway (in words)", "setting": "[6]; mouse liver homogenate, 1 hr", "result": "attacked by O-dealkylation to produce either one or both of the monophenolic derivatives"}, {"measurement": "Concentration of ethoxyaniline equivalents in Culex (mosquito)", "setting": "[1]; Culex (mosquito), 33 days, 5.0 mg 3H-ethoxyaniline to Sorghum", "result": 0.28, "unit": "ppm"}, {"measurement": "Concentration of ethoxyaniline equivalents in Gambusia (fish)", "setting": "[1]; Gambusia (fish), 33 days, 5.0 mg 3H-ethoxyaniline to Sorghum", "result": 0.04, "unit": "ppm"}, {"measurement": "Concentration of ethoxyaniline equivalents in H2O", "setting": "[1]; H2O, 33 days, 5.0 mg 3H-ethoxyaniline to Sorghum", "result": 0.055, "unit": "ppm"}, {"measurement": "Concentration of ethoxyaniline equivalents in Oedogonium (algae)", "setting": "[1]; Oedogonium (algae), 33 days, 5.0 mg 3H-ethoxyaniline to Sorghum", "result": 1.09, "unit": "ppm"}, {"measurement": "Concentration of ethoxyaniline equivalents in Physa (snail)", "setting": "[1]; Physa (snail), 33 days, 5.0 mg 3H-ethoxyaniline to Sorghum", "result": 22.68, "unit": "ppm"}, {"measurement": "biodegradability (in words)", "setting": "[1]; model ecosystem comparison", "result": "substantially biodegradable; also recorded: by far superior in both E.M. and B.I"}, {"measurement": "ecological magnification (E.M.)", "setting": "[1]", "result": 0.7, "unit": "fold"}, {"measurement": "Total 3H in Culex (mosquito) (ethoxyaniline equivalents)", "setting": "[1]; total 3H, Culex, 33 days", "result": 1.0, "unit": "ppm"}, {"measurement": "Total 3H in Gambusia (fish) (ethoxyaniline equivalents)", "setting": "[1]; total 3H, Gambusia, 33 days", "result": 0.30, "unit": "ppm"}, {"measurement": "Total 3H in H2O (ethoxyaniline equivalents)", "setting": "[1]; total 3H, H2O, 33 days", "result": 0.363, "unit": "ppm"}, {"measurement": "Total 3H in Oedogonium (algae) (ethoxyaniline equivalents)", "setting": "[1]; total 3H, Oedogonium, 33 days", "result": 3.03, "unit": "ppm"}, {"measurement": "Total 3H in Physa (snail) (ethoxyaniline equivalents)", "setting": "[1]; total 3H, Physa, 33 days", "result": 36.0, "unit": "ppm"}]}, {"smiles": "COc1ccc(C(c2ccc(OC)cc2)C(Cl)(Cl)Cl)cc1", "note": "[methoxychlor, 1,1,1-trichloro-,2,2-bis(p-methoxyphenyl)ethane]", "values": [{"measurement": "accumulation in animal tissues (in words)", "setting": "[3]", "result": "not generally accumulated in animal tissues"}, {"measurement": "insecticidal activity (in words)", "setting": "insects", "result": "considerably less insecticidal activity than DDT towards other species of insects"}, {"measurement": "susceptibility to MFO enzymes (in words)", "setting": "[4]", "result": "readily attacked by MFO enzymes"}]}]}
